In ChEMBL document CHEMBL3046001, “4-Thiazolidinone and 1-thia-3,4,9-triaza fluorene conjugates: synthesis, characterization and antimicrobial screening” (2013):
Values after ≈ are worked out from the molar mass of the structure shown. Active and inactive are the calls of the source. No cut-off for these calls is given here.

Experiments:
[1] = tested on: Penicillium chrysogenum; assay: Antifungal activity against Penicillium chrysogenum MTCC 161 assessed as growth inhibition after 24 hr by tube dilution method; type: functional; details: MTCC 161, 24 h
[2] = tested on: Pseudomonas fluorescens; assay: Antibacterial activity against Pseudomonas fluorescens MTCC 2421 assessed as growth inhibition after 24 hr by tube dilution method; type: functional; details: MTCC 2421, 24 h
[3] = tested on: Escherichia coli; assay: Antibacterial activity against Escherichia coli MTCC 1573 assessed as growth inhibition after 24 hr by tube dilution method; type: functional; details: MTCC 1573, 24 h
[4] = tested on: Bacillus pumilus; assay: Antibacterial activity against Bacillus pumilus MTCC 1456 assessed as growth inhibition after 24 hr by tube dilution method; type: functional; details: MTCC 1456, 24 h
[5] = tested on: Bacillus subtilis; assay: Antibacterial activity against Bacillus subtilis MTCC 441 assessed as growth inhibition after 24 hr by tube dilution method; type: functional; details: MTCC 441, 24 h
[6] = tested on: Bacillus subtilis; assay: Antibacterial activity against Bacillus subtilis MTCC 441 assessed as growth inhibition at 1250 ug/mL after 48 hr by agar diffusion method; type: functional; details: MTCC 441, 48 h, read-out: DIZ
[7] = tested on: Bacillus subtilis; assay: Antibacterial activity against Bacillus subtilis MTCC 441 assessed as growth inhibition at 1000 ug/mL after 48 hr by agar diffusion method; type: functional; details: MTCC 441, 48 h, read-out: DIZ
[8] = tested on: Bacillus subtilis; assay: Antibacterial activity against Bacillus subtilis MTCC 441 assessed as growth inhibition at 750 ug/mL after 48 hr by agar diffusion method; type: functional; details: MTCC 441, 48 h, read-out: DIZ
[9] = tested on: Bacillus subtilis; assay: Antibacterial activity against Bacillus subtilis MTCC 441 assessed as growth inhibition at 500 ug/mL after 48 hr by agar diffusion method; type: functional; details: MTCC 441, 48 h, read-out: DIZ
[10] = tested on: Penicillium chrysogenum; assay: Antifungal activity against Penicillium chrysogenum MTCC 161 assessed as growth inhibition at 1000 ug/mL after 48 hr by agar diffusion method; type: functional; details: MTCC 161, 48 h, read-out: DIZ
[11] = tested on: Penicillium chrysogenum; assay: Antifungal activity against Penicillium chrysogenum MTCC 161 assessed as growth inhibition at 750 ug/mL after 48 hr by agar diffusion method; type: functional; details: MTCC 161, 48 h, read-out: DIZ
[12] = tested on: Penicillium chrysogenum; assay: Antifungal activity against Penicillium chrysogenum MTCC 161 assessed as growth inhibition at 500 ug/mL after 48 hr by agar diffusion method; type: functional; details: MTCC 161, 48 h, read-out: DIZ
[13] = tested on: Penicillium chrysogenum; assay: Antifungal activity against Penicillium chrysogenum MTCC 161 assessed as growth inhibition at 250 ug/mL after 48 hr by agar diffusion method; type: functional
[14] = tested on: Penicillium chrysogenum; assay: Antifungal activity against Penicillium chrysogenum MTCC 161 assessed as growth inhibition at 100 ug/mL after 48 hr by agar diffusion method; type: functional, organism-based
[15] = tested on: Aspergillus niger; assay: Antifungal activity against Aspergillus niger MTCC 2546 assessed as growth inhibition at 1250 ug/mL after 48 hr by agar diffusion method; type: functional; details: MTCC 2546, 48 h, read-out: DIZ
[16] = tested on: Aspergillus niger; assay: Antifungal activity against Aspergillus niger MTCC 2546 assessed as growth inhibition at 1000 ug/mL after 48 hr by agar diffusion method; type: functional; details: MTCC 2546, 48 h, read-out: DIZ
[17] = tested on: Aspergillus niger; assay: Antifungal activity against Aspergillus niger MTCC 2546 assessed as growth inhibition at 250 ug/mL after 48 hr by agar diffusion method; type: functional
[18] = tested on: Pseudomonas fluorescens; assay: Antibacterial activity against Pseudomonas fluorescens MTCC 2421 assessed as growth inhibition at 1250 ug/mL after 48 hr by agar diffusion method; type: functional; details: MTCC 2421, 48 h, read-out: DIZ
[19] = tested on: Pseudomonas fluorescens; assay: Antibacterial activity against Pseudomonas fluorescens MTCC 2421 assessed as growth inhibition at 1000 ug/mL after 48 hr by agar diffusion method; type: functional; details: MTCC 2421, 48 h, read-out: DIZ
[20] = tested on: Pseudomonas fluorescens; assay: Antibacterial activity against Pseudomonas fluorescens MTCC 2421 assessed as growth inhibition at 750 ug/mL after 48 hr by agar diffusion method; type: functional; details: MTCC 2421, 48 h, read-out: DIZ
[21] = tested on: Pseudomonas fluorescens; assay: Antibacterial activity against Pseudomonas fluorescens MTCC 2421 assessed as growth inhibition at 500 ug/mL after 48 hr by agar diffusion method; type: functional; details: MTCC 2421, 48 h, read-out: DIZ
[22] = tested on: Micrococcus luteus; assay: Antibacterial activity against Micrococcus luteus MTCC 1538 assessed as growth inhibition at 500 ug/mL after 48 hr by agar diffusion method; type: functional; details: MTCC 1538, 48 h, read-out: DIZ
[23] = tested on: Micrococcus luteus; assay: Antibacterial activity against Micrococcus luteus MTCC 1538 assessed as growth inhibition at 250 ug/mL after 48 hr by agar diffusion method; type: functional; details: MTCC 1538, 48 h, read-out: DIZ
[24] = tested on: Micrococcus luteus; assay: Antibacterial activity against Micrococcus luteus MTCC 1538 assessed as growth inhibition at 100 ug/mL after 48 hr by agar diffusion method; type: functional
[25] = tested on: Bacillus pumilus; assay: Antibacterial activity against Bacillus pumilus MTCC 1456 assessed as growth inhibition at 1250 ug/mL after 48 hr by agar diffusion method; type: functional; details: MTCC 1456, 48 h, read-out: DIZ
[26] = tested on: Bacillus pumilus; assay: Antibacterial activity against Bacillus pumilus MTCC 1456 assessed as growth inhibition at 500 ug/mL after 48 hr by agar diffusion method; type: functional; details: MTCC 1456, 48 h, read-out: DIZ
[27] = tested on: Bacillus pumilus; assay: Antibacterial activity against Bacillus pumilus MTCC 1456 assessed as growth inhibition at 250 ug/mL after 48 hr by agar diffusion method; type: functional; details: MTCC 1456, 48 h, read-out: DIZ
[28] = tested on: Staphylococcus aureus; assay: Antibacterial activity against Staphylococcus aureus MTCC 1430 assessed as growth inhibition at 1000 ug/mL after 48 hr by agar diffusion method; type: functional; details: MTCC 1430, 48 h, read-out: DIZ
[29] = tested on: Staphylococcus aureus; assay: Antibacterial activity against Staphylococcus aureus MTCC 1430 assessed as growth inhibition at 750 ug/mL after 48 hr by agar diffusion method; type: functional; details: MTCC 1430, 48 h, read-out: DIZ
[30] = tested on: Staphylococcus aureus; assay: Antibacterial activity against Staphylococcus aureus MTCC 1430 assessed as growth inhibition at 500 ug/mL after 48 hr by agar diffusion method; type: functional; details: MTCC 1430, 48 h, read-out: DIZ
[31] = tested on: Staphylococcus aureus; assay: Antibacterial activity against Staphylococcus aureus MTCC 1430 assessed as growth inhibition at 100 ug/mL after 48 hr by agar diffusion method; type: functional, organism-based
[32] = tested on: Pseudomonas aeruginosa; assay: Antibacterial activity against Pseudomonas aeruginosa MTCC 424 assessed as growth inhibition at 250 ug/mL after 48 hr by agar diffusion method; type: functional; details: MTCC 424, 48 h, read-out: DIZ
[33] = tested on: Pseudomonas aeruginosa; assay: Antibacterial activity against Pseudomonas aeruginosa MTCC 424 assessed as growth inhibition at 100 ug/mL after 48 hr by agar diffusion method; type: functional; details: MTCC 424, 48 h, read-out: DIZ
[34] = tested on: Micrococcus luteus; assay: Antibacterial activity against Micrococcus luteus MTCC 1538 assessed as growth inhibition at 1250 ug/mL after 48 hr by agar diffusion method; type: functional; details: MTCC 1538, 48 h, read-out: DIZ
[35] = tested on: Micrococcus luteus; assay: Antibacterial activity against Micrococcus luteus MTCC 1538 assessed as growth inhibition at 1000 ug/mL after 48 hr by agar diffusion method; type: functional; details: MTCC 1538, 48 h, read-out: DIZ
[36] = tested on: Micrococcus luteus; assay: Antibacterial activity against Micrococcus luteus MTCC 1538 assessed as growth inhibition at 750 ug/mL after 48 hr by agar diffusion method; type: functional; details: MTCC 1538, 48 h, read-out: DIZ
[37] = tested on: Escherichia coli; assay: Antibacterial activity against Escherichia coli MTCC 1573 assessed as growth inhibition at 250 ug/mL after 48 hr by agar diffusion method; type: functional; details: MTCC 1573, 48 h, read-out: DIZ
[38] = tested on: Escherichia coli; assay: Antibacterial activity against Escherichia coli MTCC 1573 assessed as growth inhibition at 100 ug/mL after 48 hr by agar diffusion method; type: functional
[39] = tested on: Pseudomonas aeruginosa; assay: Antibacterial activity against Pseudomonas aeruginosa MTCC 424 assessed as growth inhibition at 500 ug/mL after 48 hr by agar diffusion method; type: functional; details: MTCC 424, 48 h, read-out: DIZ

Row | Compound | MIC [1] [µg/mL] | MIC [2] [µg/mL] | MIC [3] [µg/mL] | MIC [4] [µg/mL] | MIC [5] [µg/mL] | zone of inhibition at 1250 µg/mL [6] [mm] | zone of inhibition at 1000 µg/mL [7] [mm] | zone of inhibition at 750 µg/mL [8] [mm] | zone of inhibition at 500 µg/mL [9] [mm] | zone of inhibition at 1000 µg/mL [10] [mm] | zone of inhibition at 750 µg/mL [11] [mm] | zone of inhibition at 500 µg/mL [12] [mm] | growth inhibition (GI) [14] | zone of inhibition at 1250 µg/mL [15] [mm] | zone of inhibition at 1000 µg/mL [16] [mm] | zone of inhibition at 1250 µg/mL [18] [mm] | zone of inhibition at 1000 µg/mL [19] [mm] | zone of inhibition at 750 µg/mL [20] [mm] | zone of inhibition at 500 µg/mL [21] [mm] | zone of inhibition at 500 µg/mL [22] [mm] | further results
1 | O=C1CSC(c2ccccn2)N1c1nnc2c3cc(Cl)ccc3nc-2s1 (stereo not drawn) | 200 (≈ 500 µM) | 50 (≈ 125 µM) | 150 (≈ 375 µM) | 50 (≈ 125 µM) | 150 (≈ 375 µM) | 22 | 19 | 14 | 9 | 18 | 15 | 12 | inactive | 20 | 18 | 21 | 17 | 15 | 11 | 8 | zone of inhibition at 250 µg/mL ([13]; MTCC 161, 48 h, read-out: DIZ): 9 mm; zone of inhibition at 250 µg/mL ([17]; MTCC 2546, 48 h, read-out: DIZ): 9 mm; zone of inhibition at 250 µg/mL [23]: 7 mm; growth inhibition (GI) [24]: inactive; zone of inhibition at 1250 µg/mL [25]: 23 mm; zone of inhibition at 500 µg/mL [26]: 15 mm; zone of inhibition at 250 µg/mL [27]: 13 mm; zone of inhibition at 1000 µg/mL [28]: 13 mm; zone of inhibition at 750 µg/mL [29]: 11 mm; zone of inhibition at 500 µg/mL [30]: 9 mm; growth inhibition (GI) [31]: inactive; zone of inhibition at 250 µg/mL [32]: 10 mm; zone of inhibition at 100 µg/mL [33]: 7 mm; zone of inhibition at 1250 µg/mL [34]: 19 mm; zone of inhibition at 1000 µg/mL [35]: 15 mm; zone of inhibition at 750 µg/mL [36]: 12 mm; zone of inhibition at 250 µg/mL [37]: 11 mm; growth inhibition (GI) [38]: inactive; zone of inhibition at 500 µg/mL [39]: 13 mm
2 | CC1SCC(=O)N1c1nnc2c3ccccc3nc-2s1 (stereo not drawn) | 250 (≈ 827 µM) | 30 (≈ 99.2 µM) | 40 (≈ 132 µM) | 30 (≈ 99.2 µM) | 30 (≈ 99.2 µM) | 22 | 20 | 18 | 15 | 15 | 12 | 10 | inactive | 17 | 14 | 24 | 21 | 17 | 13 | 12 | growth inhibition (GI) [13]: inactive; growth inhibition (GI) [17]: inactive; zone of inhibition at 250 µg/mL [23]: 10 mm; zone of inhibition at 100 µg/mL ([24]; MTCC 1538, 48 h, read-out: DIZ): 8 mm; zone of inhibition at 1250 µg/mL [25]: 25 mm; zone of inhibition at 500 µg/mL [26]: 12 mm; zone of inhibition at 250 µg/mL [27]: 9 mm; zone of inhibition at 1000 µg/mL [28]: 15 mm; zone of inhibition at 750 µg/mL [29]: 11 mm; zone of inhibition at 500 µg/mL [30]: 8 mm; growth inhibition (GI) [31]: inactive; zone of inhibition at 250 µg/mL [32]: 11 mm; zone of inhibition at 100 µg/mL [33]: 8 mm; zone of inhibition at 1250 µg/mL [34]: 19 mm; zone of inhibition at 1000 µg/mL [35]: 17 mm; zone of inhibition at 750 µg/mL [36]: 14 mm; zone of inhibition at 250 µg/mL [37]: 10 mm; zone of inhibition at 100 µg/mL ([38]; MTCC 1573, 48 h, read-out: DIZ): 7 mm; zone of inhibition at 500 µg/mL [39]: 12 mm
